Read-outs that look alike come from different tables or passages of the source.
How the values were obtained:
[1] = phase I, patients with a variety of cancers; cited from earlier work
colon cancer = conditions: model of colon cancer; cited from earlier work
AML cell lines = assay: Combination of CNDAC with hypomethylating agents in AML cell lines; format: cell-based; conditions: more apparent if cells are treated with hypomethylating agents first
Description: Previous studies by the applicant have shown that in AML cell lines, the active metabolite of sapacitabine, CNDAC, is synergistic with hypomethylating agents and the synergy is more apparent if cells are treated with hypomethylating agents first. The present invention relates to the identification of new and previously undefined subgroups of AML patients for which treatment with an alternating regimen of sapacitabine and decitabine is particularly effective.

[2] = tested on: acute myeloid leukemia (AML); format: in vivo, human
Description: WBC count can be determined, by any suitable institutional standard protocol. By way of example, suitable methods are described in Blumenreich [Reference 12] or Shafer [Reference 13], the contents of which are incorporated by reference.
SWOG classification was determined according to the criteria set out in Table 6 (Slovak et al, Reference 1; the contents of which are incorporated by reference). Cytogenetic testing can be carried out on peripheral blood, for example, in accordance with the standard methodology set forth in Slovak et al [Reference 1] or on bone marrow. Karyotyping or routine cytogenetic analysis involves the examination of chromosomes to identify structural abnormalities. Conventional cytogenetics (karyotyping) is the standard cytogenetic analysis for identifying gross chromosomal abnormalities: aneuploidies & structural (gain/loss, rearrangement). Chromosomes of a dividing human cell can be analysed clearly in white blood cells, specifically T lymphocytes, which are easily collected from blood. Cells from other tissues such as bone marrow, amniotic fluid, and other tissues can also be cultured for cytogenetic analysis. Cells from bone marrow are cultured for several days. Chromosomes in the growing and dividing cells are then fixed, spread on microscope slides, and stained to allow each of the chromosomes to be individually identified. Cytogenetic study was performed using the standard G-banding method (Reference 22, the contents of which are incorporated by reference). […] Findings based on the FISH technique were used as considered supportive information (FISH analysis is based on probes directed to specific chromosomal regions (molecular cytogenetics)) (Reference 22).

[3] = tested on: cell line that is resistant to cytarabine; conditions: cited from earlier work
[4] = Antecedent MDS/MPN No and WBC ≥10,000
[5] = Antecedent MDS/MPN Yes and WBC <10,000
[6] = SWOG Not unfavourable and WBC <10,000
[7] = SWOG Unfavourable and WBC ≥10,000

**Q.** With `CCCCCCCCCCCCCCCC(=O)Nc1ccn([C@@H]2O[C@H](CO)[C@@H](O)[C@@H]2C#N)c(=O)n1` [(I), 1-(2-C-cyano-2-deoxy-β-D-arabino-pentofuranosyl)-N^4-palmitoyl cytosine] as the compound, how does the dose-limiting toxicity [1] read?
**A.** myelosuppression

**Q.** And the tolerability [1]?
**A.** well tolerated

**Q.** What about the anticancer activity (colon cancer) of the same compound?
**A.** strong

**Q.** And the “increasing survival and preventing the spread of colon cancer metastases to the liver, compared with gemcitabine or 5-FU” value (colon cancer)?
**A.** superior

**Q.** With `N#C[C@H]1[C@H](O)[C@@H](CO)O[C@H]1n1ccc(N)nc1=O` [CNDAC, 2′-C-cyano-2′-deoxy-1-β-D-arabino-pentofuranosyl cytosine] as the compound, how does the “interaction with hypomethylating agents” value (AML cell lines) read?
**A.** synergistic

**Q.** For `Nc1ncn([C@H]2C[C@H](O)[C@@H](CO)O2)c(=O)n1` [Decitabine, 4-amino-1-(2-deoxy-β-D-erythro-pentofuranosyl)-1,3,5-triazin-2(1H)-one], which “1-year survival (%)” value [2, 4] is on record?
**A.** 36.7%

**Q.** And the “Median overall survival months” value [2, 4]?
**A.** 5.5 months

**Q.** And the “1-year survival (%)” value [2, 5]?
**A.** 27.5%

**Q.** What about the “CR rate (%)” value [2, 5] of the same compound?
**A.** 2.5%

**Q.** And the “Median overall survival months” value [2, 5]?
**A.** 4.9 months

**Q.** What about the “1-year survival (%)” value ([2]; Antecedent MDS/MPN: No) of the same compound?
**A.** 35.5%

**Q.** What about the “Median overall survival months” value ([2]; Antecedent MDS/MPN: No) of the same compound?
**A.** 6.7 months

**Q.** And the “1-year survival (%)” value ([2]; Antecedent MDS/MPN: Yes)?
**A.** 32.9%

**Q.** What about the “CR median duration, months” value ([2]; Antecedent MDS/MPN: Yes) of the same compound?
**A.** 7.1 months

**Q.** And the “CR rate (%)” value ([2]; Antecedent MDS/MPN: Yes)?
**A.** 5.7%

**Q.** And the “Median overall survival months” value ([2]; Antecedent MDS/MPN: Yes)?
**A.** 5.0 months

**Q.** And the “1-year survival (%)” value [2, 6]?
**A.** 31.8%

**Q.** What about the “CR rate (%)” value [2, 6] of the same compound?
**A.** 5.7%

**Q.** And the “Median overall survival months” value [2, 6]?
**A.** 5.6 months

**Q.** What about the “1-year survival (%)” value [2, 7] of the same compound?
**A.** 30.0%

**Q.** What about the “CR rate (%)” value [2, 7] of the same compound?
**A.** 0%

**Q.** And the “Median overall survival months” value [2, 7]?
**A.** 3.0 months

**Q.** What about the “1-year survival (%)” value ([2]; SWOG category Not Unfavourable) of the same compound?
**A.** 35.9%

**Q.** What about the “Median overall survival months” value ([2]; SWOG category Not Unfavourable) of the same compound?
**A.** 5.7 months

**Q.** What about the “1-year survival (%)” value ([2]; SWOG category Unfavourable) of the same compound?
**A.** 33.0%

**Q.** And the “CR rate (%)” value ([2]; SWOG category Unfavourable)?
**A.** 9.6%

**Q.** And the “Median overall survival months” value ([2]; SWOG category Unfavourable)?
**A.** 5.7 months

**Q.** And the Median overall survival ([2]; all randomized patients (n=241 per arm))?
**A.** 5.7 months

**Q.** And the “Patients aged 80 and over, median overall survival, months” value ([2]; patients aged 80 and over with <10,000 WBC)?
**A.** 4.2 months

**Q.** What about the “1-year survival (%)” value ([2]; patients with <10,000 WBC) of the same compound?
**A.** 32.9%

**Q.** And the “CR rate (%)” value ([2]; patients with <10,000 WBC)?
**A.** 8.6%

**Q.** What about the “Median overall survival months” value ([2]; patients with <10,000 WBC) of the same compound?
**A.** 5.8 months

**Q.** And the “1-year survival (%)” value ([2]; patients with ≥10,000 WBC)?
**A.** 38.5%

**Q.** And the “Median overall survival months” value ([2]; patients with ≥10,000 WBC)?
**A.** 5.5 months

**Q.** With `Nc1ccn([C@@H]2O[C@H](CO)[C@@H](O)[C@@H]2O)c(=O)n1` [cytarabine] as the compound, how does the IC50 ([3]; after 5-azacitidine (upregulation of dCK)) read?
**A.** 0.55 µM

**Q.** And the IC50 ([3]; before 5-azacitidine)?
**A.** 12.5 µM

Source: US20190298718A1, “DOSING REGIMEN” (Cyclacel Limited, priority 2017, published 2019)
